Our source for the IC50 values is patent US20250382297A1, “INHIBITORS OF FGFR2 AND FGFR3 AND USES THEREOF” (Insilico Medicine IP Limited, priority 2022, published 2025).

The target of one test is FGFR2 (Homo sapiens (Human), UniProt P21802). Kind of test: FGFR biochemical assay (LanthaScreen TR-FRET kinase assay), FGFR2. (In TR-FRET formats the signal depends on donor and acceptor labels being close together.)
The next test deals with FGFR4 (Homo sapiens (Human), UniProt P22455). Kind of test: FGFR biochemical assay (LanthaScreen TR-FRET kinase assay), FGFR4.
Another test concerns the target FGFR3 (Homo sapiens (Human), UniProt P22607). Kind of test: FGFR biochemical assay (LanthaScreen TR-FRET kinase assay), FGFR3.
The target in the next test is FGFR1 (Homo sapiens (Human), UniProt P11362). Kind of test: FGFR biochemical assay (LanthaScreen TR-FRET kinase assay), FGFR1.

Molecules are shown by their SMILES. Like-named read-outs stand apart in the source and are kept apart here.

Chain of FGFR1 (P11362 22-822): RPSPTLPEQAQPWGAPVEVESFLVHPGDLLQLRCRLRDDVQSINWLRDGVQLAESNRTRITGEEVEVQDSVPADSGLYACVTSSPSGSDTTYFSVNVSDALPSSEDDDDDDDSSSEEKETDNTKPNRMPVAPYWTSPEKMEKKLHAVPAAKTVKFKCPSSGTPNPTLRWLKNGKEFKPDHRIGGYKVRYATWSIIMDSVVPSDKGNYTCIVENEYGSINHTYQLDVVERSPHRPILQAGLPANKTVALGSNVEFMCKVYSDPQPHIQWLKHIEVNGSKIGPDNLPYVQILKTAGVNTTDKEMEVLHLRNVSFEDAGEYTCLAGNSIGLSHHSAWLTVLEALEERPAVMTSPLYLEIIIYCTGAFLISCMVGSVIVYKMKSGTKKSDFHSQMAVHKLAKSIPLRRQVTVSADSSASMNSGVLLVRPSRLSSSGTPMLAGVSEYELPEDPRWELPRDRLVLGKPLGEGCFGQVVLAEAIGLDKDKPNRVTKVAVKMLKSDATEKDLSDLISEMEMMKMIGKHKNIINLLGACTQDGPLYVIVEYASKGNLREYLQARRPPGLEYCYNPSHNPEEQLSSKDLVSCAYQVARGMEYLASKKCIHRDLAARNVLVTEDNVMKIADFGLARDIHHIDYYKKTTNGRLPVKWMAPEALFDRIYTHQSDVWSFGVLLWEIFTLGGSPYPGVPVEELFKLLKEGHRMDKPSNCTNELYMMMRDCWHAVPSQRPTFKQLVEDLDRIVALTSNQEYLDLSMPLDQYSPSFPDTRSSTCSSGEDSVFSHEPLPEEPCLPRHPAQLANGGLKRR
Chain of FGFR2 (P21802 22-821): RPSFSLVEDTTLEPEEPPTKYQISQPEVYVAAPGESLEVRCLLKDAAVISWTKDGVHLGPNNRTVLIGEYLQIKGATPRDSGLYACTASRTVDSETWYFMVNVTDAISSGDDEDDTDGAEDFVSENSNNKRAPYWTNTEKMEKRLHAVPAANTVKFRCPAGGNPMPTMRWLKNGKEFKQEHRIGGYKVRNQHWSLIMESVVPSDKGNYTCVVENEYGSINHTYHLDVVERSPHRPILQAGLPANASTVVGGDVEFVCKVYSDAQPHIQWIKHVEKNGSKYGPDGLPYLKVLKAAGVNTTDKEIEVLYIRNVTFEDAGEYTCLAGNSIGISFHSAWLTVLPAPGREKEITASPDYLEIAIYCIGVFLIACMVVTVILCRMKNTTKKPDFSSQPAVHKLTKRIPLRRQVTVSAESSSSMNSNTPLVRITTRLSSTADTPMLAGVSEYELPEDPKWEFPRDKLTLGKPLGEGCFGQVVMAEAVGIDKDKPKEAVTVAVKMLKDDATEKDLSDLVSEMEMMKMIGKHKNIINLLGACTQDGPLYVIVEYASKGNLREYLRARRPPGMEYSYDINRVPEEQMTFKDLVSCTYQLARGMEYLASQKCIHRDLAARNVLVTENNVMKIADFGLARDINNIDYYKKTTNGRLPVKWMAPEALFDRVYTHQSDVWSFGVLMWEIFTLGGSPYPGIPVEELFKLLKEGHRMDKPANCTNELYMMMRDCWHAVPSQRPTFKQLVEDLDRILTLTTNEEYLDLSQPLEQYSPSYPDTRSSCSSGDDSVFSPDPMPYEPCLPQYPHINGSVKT
Chain of FGFR3 (P22607 23-806): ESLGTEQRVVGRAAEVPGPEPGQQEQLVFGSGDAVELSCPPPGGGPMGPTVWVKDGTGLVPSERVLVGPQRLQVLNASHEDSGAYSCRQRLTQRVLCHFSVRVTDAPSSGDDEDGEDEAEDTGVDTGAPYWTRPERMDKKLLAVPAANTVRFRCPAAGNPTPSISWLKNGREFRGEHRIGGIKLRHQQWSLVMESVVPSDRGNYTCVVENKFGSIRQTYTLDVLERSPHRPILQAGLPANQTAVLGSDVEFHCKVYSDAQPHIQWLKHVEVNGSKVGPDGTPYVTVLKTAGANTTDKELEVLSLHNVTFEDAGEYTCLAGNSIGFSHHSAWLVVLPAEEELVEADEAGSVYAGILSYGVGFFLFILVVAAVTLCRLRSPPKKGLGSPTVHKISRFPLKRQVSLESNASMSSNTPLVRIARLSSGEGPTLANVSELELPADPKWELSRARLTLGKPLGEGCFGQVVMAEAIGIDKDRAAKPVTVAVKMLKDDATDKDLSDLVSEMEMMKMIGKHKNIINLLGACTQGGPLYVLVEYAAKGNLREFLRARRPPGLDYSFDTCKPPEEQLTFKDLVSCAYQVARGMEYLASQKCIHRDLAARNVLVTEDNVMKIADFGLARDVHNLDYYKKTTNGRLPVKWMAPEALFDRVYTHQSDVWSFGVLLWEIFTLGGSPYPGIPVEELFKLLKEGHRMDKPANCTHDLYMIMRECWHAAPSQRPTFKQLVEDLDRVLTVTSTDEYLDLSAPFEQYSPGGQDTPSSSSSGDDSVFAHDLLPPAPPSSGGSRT
Chain of FGFR4 (P22455 22-802): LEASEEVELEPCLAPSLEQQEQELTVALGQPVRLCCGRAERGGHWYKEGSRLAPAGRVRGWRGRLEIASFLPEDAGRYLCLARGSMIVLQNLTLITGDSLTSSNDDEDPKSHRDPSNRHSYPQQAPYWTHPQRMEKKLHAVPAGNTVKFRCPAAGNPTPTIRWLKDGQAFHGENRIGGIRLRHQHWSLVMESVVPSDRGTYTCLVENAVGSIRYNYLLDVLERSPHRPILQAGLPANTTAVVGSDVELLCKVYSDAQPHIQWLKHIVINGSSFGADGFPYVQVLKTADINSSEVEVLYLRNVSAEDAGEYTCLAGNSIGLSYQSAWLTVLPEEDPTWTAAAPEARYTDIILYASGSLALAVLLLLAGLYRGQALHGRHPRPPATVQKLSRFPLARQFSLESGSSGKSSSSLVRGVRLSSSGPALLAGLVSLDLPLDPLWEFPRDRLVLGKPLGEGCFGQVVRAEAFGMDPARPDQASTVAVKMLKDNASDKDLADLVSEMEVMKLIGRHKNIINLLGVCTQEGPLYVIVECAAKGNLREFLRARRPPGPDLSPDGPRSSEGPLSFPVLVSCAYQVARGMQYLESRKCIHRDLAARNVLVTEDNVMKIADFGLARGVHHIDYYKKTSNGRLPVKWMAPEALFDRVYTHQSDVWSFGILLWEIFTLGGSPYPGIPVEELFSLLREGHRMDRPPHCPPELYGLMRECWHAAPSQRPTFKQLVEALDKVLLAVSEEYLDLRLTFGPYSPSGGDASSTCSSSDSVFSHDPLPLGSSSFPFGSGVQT
Experimental for FGFR1: (§1) Convert Ratio values to percent inhibition values (Percent inhibition=(max−sample Ratio)/(max−min)*100) where “min” means the Ratio of no enzyme control and “max” means the Ratio of DMSO control. • Data are analyzed and curve fitting is performed by XLFit Excel add-in version 5.4.0.8. The IC50 calculation equation is: Y=Bottom+(Top-Bottom)/(1+ (IC50/X)^HillSlope.
Experimental for FGFR2: as §1
Experimental for FGFR3: as §1
Experimental for FGFR4: as §1

`C=CC(=O)Nc1ccc(-c2c(-c3ccc(Oc4cccc(C)n4)cc3)c(C(N)=O)c3cnc(CO)cn23)cc1` [Example 11, 6-(4-acrylamidophenyl)-3-(hydroxymethyl)-7-(4-((6-methylpyridin-2-yl)oxy)phenyl)pyrrolo[1,2-a]pyrazine-8-carboxamide]: the half-inhibitory concentration (IC50) is less than 10 nM on FGFR2 (read-out: FGFR2 IC50, incubation with enzyme at room temperature for 10 minutes before substrate, ATP 22 μM, FGFR2 0.01 nM); 100 to 1000 nM on FGFR4; 10 to 100 nM at FGFR3; 100 to 1000 nM against FGFR1.
For the compound `C=CC(=O)Nc1ccc(-c2c(-c3ccc(Oc4cccc(C)n4)cc3)c(C(N)=O)c3n2CCN(C)C3)cc1` [Example 13, 6-(4-acrylamidophenyl)-2-methyl-7-(4-((6-methylpyridin-2-yl)oxy)phenyl)-1,2,3,4-tetrahydropyrrolo[1,2-a]pyrazine-8-carboxamide], the IC50 is 10 to 100 nM at FGFR2; greater than 1000 nM on FGFR4 (read-out: FGFR4 IC50, incubation with enzyme at room temperature for 10 minutes before substrate, ATP 238 μM, FGFR4 1 nM); 100 to 1000 nM against FGFR3; 100 to 1000 nM at FGFR1.

The IC50 is the concentration needed to halve the response being measured.
